Experimental data published in patent US6740500B1, “Method of screening for non-steroidal neuropsychiatric agents” (priority 2000, dated 2004).

Key:
[1] = tested on: γ-aminobutyric acid type A (GABAA) receptor; details: at low nanomolar concentrations; cited from earlier work
socially isolated mice = experiment: Social-isolation stress mice: brain ALLO content and barbiturate-induced sleeping time; assay type: in vivo; details: single injection 2.6 μmol/Kg i.p.
[2] = tested on: ALLO in the cerebrospinal fluid (CSF); experiment: CSF neurosteroid content in patients with unipolar major depression after SSRI treatment; assay type: in vivo, human; details: 8-10 weeks of treatment
[3] = tested on: ALLO content in rat brain slices; experiment: ALLO content in vitro in rat brain slices; assay type: cell-based
Source text: Presumably, this effect was mediated via an inhibition of the oxidative function of the 3α-HSOR by the FGIN-1 drugs. Such an effect would lead to the accumulation of ALLO, since the reverse step—the reduction of 5α-DHP to ALLO was not affected by these compounds. Similar results were obtained in brain slices of ADX/CX rats.

brain ALLO content = experiment: Brain ALLO content after fluoxetine in normal and ADX/CX male rats; assay type: in vivo, rat

| Compound | modulation of GABAA receptor function [1] | brain content of ALLO and barbiturate-sleeping time (socially isolated mice; group-housed mice) | barbiturate-sleeping time (socially isolated mice; socially isolated mice) | brain content of ALLO (socially isolated mice; socially isolated mice) | concentration of ALLO in CSF [2] | ALLO content in rat brain slices [3] | increase of brain ALLO content (brain ALLO content; 5-20 mg/kg, i.p., normal and ADX/CX male rats) | brain ALLO content after fluoxetine (brain ALLO content; ADX/CX rats, increase from 2 pmol/g) [pmol/g] | dose and time dependence of effect on brain ALLO content (brain ALLO content; also after protracted fluoxetine treatment) | brain ALLO content after fluoxetine (brain ALLO content; normal rats, increase from 3 pmol/g tissue) [pmol/g tissue] | brain region specificity of ALLO increase (brain ALLO content; rat brain regions) |
| --- | --- | --- | --- | --- | --- | --- | --- | --- | --- | --- | --- |
| CC(=O)[C@H]1CC[C@H]2[C@@H]3CC[C@H]4C[C@H](O)CC[C@]4(C)[C@H]3CC[C@]12C [ALLO, 5α-pregnan-3α-ol-20-one] | positively modulates |  |  |  |  |  |  |  |  |  |  |
| CNCCC(Oc1ccc(C(F)(F)F)cc1)c1ccccc1 (centres unmarked) [fluoxetine] |  | without altering | normalized | normalized | significantly increased | could increase ALLO content | 2-3 fold | 8 | dose- and time-dependent | 9 | most pronounced ALLO increase occurring in the olfactory bulb, cortex, and hippocampus |
